Assay results as given in paper PMC10854695, “Using Flavonoid Substitution Status to Predict Anticancer Effects in Human Melanoma Cancers: An In Vitro Study” (Cancers, 2024).
Where two headings read alike, the source gives them in different places.

Tests used:
A375 melanoma cells [1] = test: [3H]-thymidine incorporation (DNA biosynthesis), A375; type: cell-based, human; settings: read-out: IC50, effect on DNA biosynthesis ([3H]-thymidine incorporation)
Procedure: (§1) The inhibition of DNA biosynthesis was evaluated using [^3H]-thymidine incorporation into the DNA of melanoma cells (C32, A375) and fibroblasts treated with the studied compounds [21]. The cells were briefly seeded in 24-well plates (1 × 10^5 cells per well) and allowed to adhere for 24 h. […] After incubation for 24, 48, and 72 h, the cells were rinsed three times with PBS. Then, cells were lysed in 1 mL of 0.1 M NaOH containing 1% SDS. The cell lysate was moved into scintillation vials containing scintillation liquid, and the radioactivity of the samples was measured using a liquid scintillation analyzer (Perkin-Elmer, Waltham, MA, USA).

C32 melanoma cells [2] = test: [3H]-thymidine incorporation (DNA biosynthesis), C32; type: cell-based, human; settings: read-out: IC50, effect on DNA biosynthesis ([3H]-thymidine incorporation)
Procedure: as §1

[3] = test system: SK-MEL-2 malignant melanoma cell line; parameters: method as in PMID 36991237; settings: read-out: IC50, inhibition of viability, MTS test; cited from earlier work
A375 melanoma cells [4] = test: Apoptosis assay, annexin V/PI flow cytometry, A375; type: cell-based, human; settings: 48 h
C32 melanoma cells [5] = test: Neutral red uptake (NRU) assay, C32; settings: Homo sapiens
[6] = test system: cleaved caspase-3 and cleaved caspase-7 in C32 cells; test: Immunofluorescence of cleaved caspase-3/-7, C32; type: cell-based, human; settings: C32, 48 h, immunofluorescent staining
A375 melanoma cells [7] = test: MTT cell viability assay, A375; settings: Homo sapiens;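 further: Read-out is formazan absorbance at 570 nm after 2 h with MTT, with compounds in at most 0.1% v/v DMSO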
Procedure: (§2) The MTT colorimetric assay was performed as a preliminary evaluation of the cytotoxicity of the selected flavonoids according to the method described and validated by Strawa et al. [21]. Briefly, melanoma cells and fibroblasts were seeded in 96-well microplates at a density of 1 × 10^4 cells per well. Fibroblasts were used as a control cell line in order to assess the selectivity of the compounds. […] Subsequently, the cells were washed with PBS, incubated with MTT solution for 2 h, and lysed with dimethyl sulfoxide (DMSO) supplemented with 1% (v/v) Sorensen’s glycine buffer. The absorbance was measured using a microplate reader (EPOCH 2, BioTek, Winooski, VT, USA) at a wavelength of 570 nm. The compounds were used at a final DMSO concentration of no more than 0.1% (v/v) in each well. The results were generated from at least three independent experiments. […] The IC50 values were calculated with GraphPad Prism 9 software (GraphPad Software, San Diego, CA, USA).

[8] = Neutral red uptake (NRU) assay, normal cells; settings: human, human skin fibroblasts (CCD25Sk)
[9] = MTT cell viability assay, normal cells; settings: human, human skin fibroblasts (CCD25Sk);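 further: fibroblasts served as non-cancer comparison line for selectivity versus melanoma cells, MTT reduction read as absorbance at 570 nm after 2 h dye exposure, compounds in ≤0.1% DMSO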
Procedure: as §2

[10] = test system: G-361 malignant melanoma cell line; parameters: method as in PMID 36991237; settings: read-out: IC50, inhibition of viability, MTS test; cited from earlier work
A375 melanoma cells [11] = test: Neutral red uptake (NRU) assay, A375; settings: Homo sapiens, read-out: IC50, cytotoxic activity, NRU assay
Procedure: The NRU (neutral red uptake) was conducted as previously described by Szoka and co-workers, with some modifications [22]. Briefly, melanoma cells and fibroblasts were seeded in microplates at the density of 1 × 10^4 cells per well and allowed to adhere for 24 h. […] After treatment, the culture medium was replaced with a neutral red solution (40 µg/mL). An additional 2 h of incubation was performed. The neutral red solution was then removed and the neutral red accumulated in the cells was dissolved in 50% EtOH with 1% of the glacial acetic acid. The absorbance was estimated at 540 nm and IC50 values were calculated using GraphPad Prism software (GraphPad Software, San Diego, CA, USA).

[12] = test system: human skin fibroblasts (CCD25Sk); test: [3H]-thymidine incorporation (DNA biosynthesis), normal cells; type: cell-based; settings: Homo sapiens, Skin fibroblast, read-out: IC50, effect on DNA biosynthesis ([3H]-thymidine incorporation)
Procedure: as §1

[13] = test system: caspases, PARP, phospho-RSK in A375 cells; test: Western immunoblot of apoptosis mediators and RSK, A375; type: cell-based, human; settings: A375, 48 h, Western blot
Procedure: (§3) Floating cells were harvested by centrifugation of the conditioned media (300× g, 5 min). Cell pellet and adherent cells were lysed in a cell lysis buffer supplemented with inhibitors of proteases and phosphatases. The cell lysate was sonicated (2 × 10 s) on ice with an ultrasonic homogenizer (UP200S, Hielscher Ultrasonics GmbH, Teltow, Germany) and centrifuged for 10 min at 10,000× g. The supernatant was collected and stored in a freezer at −70 °C. Protein concentrations in the cell supernatants were determined using a Lowry assay. Obtained proteins were dissolved on SDS-PAGE gels (7.5%, 10%, or 12%) using the Mini-Protean Tetra system. The proteins were transferred to nitrocellulose membranes using the Mini Trans-Blot Cell wet blotting system. The 5% skim milk was used to block membranes. Then, membranes were probed for 24 h at 4 °C with the following antibodies: anti-phospho-RSK, anti-RSK, anti-PARP, anti-cleaved PARP, anti-caspase-8, anti-caspase-9, anti-caspase-7, anti-caspase-3, and anti-actin. Membranes were incubated with an ECL-HRP (enhanced chemiluminescence-horseradish peroxidase) substrate, and the signal was spotted using the BioSpectrum Imaging System and VisionWorks LS software 7.0 (Ultra-Violet Products, Ltd., San Gabriel, CA, USA). The intensity of the bands was quantified by densitometric analysis using UVIBand software, version 15.08d (Uvitec Ltd., Cambridge, UK).

C32 melanoma cells [14] = test: MTT cell viability assay, C32; settings: Homo sapiens, read-out: IC50, cytotoxic activity, MTT test;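 further: MTT added for 2 h, cells lysed in DMSO, absorbance read at 570 nm, compound vehicle kept at or below 0.1% DMSO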
Procedure: as §2

[15] = test system: caspases, PARP, phospho-RSK in C32 cells; test: Western immunoblot of apoptosis mediators and RSK, C32; type: cell-based, human; settings: C32, 48 h, Western blot
Procedure: as §3

[16] = test system: cleaved caspase-3 and cleaved caspase-7 in A375 cells; test: Immunofluorescence of cleaved caspase-3/-7, A375; type: cell-based, human; settings: A375, 48 h, immunofluorescent staining
Procedure: Firstly, to examine fluorescent signals, cells were placed in the bottom of 96-well black plates at 1 × 10^4 cells per well and permitted to adhere for 24 h. […] After incubating and removing the medium, cells were fixed in 4% paraformaldehyde for 15 min. Later, cells were rinsed three times with PBS and permeabilized with 0.1% Triton X-100 for 5 min at room temperature. The 10% heat-inactivated goat serum in the PBS was used to block non-specific binding. Subsequently, cells were treated with the following antibodies overnight: anti-cleaved caspase 3 and anti-cleaved caspase-7. […] Cell nuclei were stained with Hoechst 33342 and F-actin was stained with Phalloidin-Atto 488. Fluorescent signals were captured using a BD Pathway 855 confocal microscope (Becton Dickinson, Franklin Lakes, NJ, USA). The mean fluorescence intensity was calculated using ImageJ software (National Institutes of Health, Bethesda, Rockville, MD, USA).

A375 cells [17] = test system: A375 cells; parameters: method as in PMID 26911838; settings: 10 and 20 μM, dose-dependent; cited from earlier work
in vitro = settings: human
Procedure: as §2

C32 melanoma cells [18] = test: Apoptosis assay, annexin V/PI flow cytometry, C32; type: cell-based, human; settings: C32, 25 µM, 48 h
Procedure: Firstly, cells were placed in 6-well plates at a density of 1 × 10^5 cells per well and allowed to adhere for 24 h. Then, cells were treated with 25 µM, 50 µM, and 100 μM of the selected flavonoids (1, 6, 15, 16, 17, 37) and incubated for 48 h. Floating and adherent cells were collected and assayed using the manufacturer’s protocol supported by the Dead Cell Apoptosis Kit for flow cytometry. Concisely, 100 μL of an annexin-binding buffer containing a 5 μL annexin V-FITC conjugate solution and 1 μg/mL PI (propidium iodide) was used to disperse the cells. After 15 min of incubation, an additional 400 μL of the mentioned buffer was added. The cells were analyzed with a DxFLEX flow cytometer (Beckman Coulter, Brea, CA, USA).

A375 cells [19] = test system: A375 cells; parameters: method as in PMID 28260058; settings: 40 µM; cited from earlier work
[20] = Homo sapiens, A-375, A375, 24 h
[21] = Homo sapiens, A-375, A375, 48 h
[22] = Homo sapiens, A-375, A375, 72 h
[23] = C32, 24 h, read-out: IC50, cytotoxic activity, NRU assay, C32, 24 h
[24] = C32, 48 h, read-out: IC50, cytotoxic activity, NRU assay, C32, 48 h
[25] = C32, 72 h, read-out: IC50, cytotoxic activity, NRU assay, C32, 72 h
[26] = A-375, 24 h, read-out: IC50, cytotoxic activity, MTT test, A375, 24 h
[27] = A-375, 48 h, read-out: IC50, cytotoxic activity, MTT test, A375, 48 h
[28] = A-375, 72 h, read-out: IC50, cytotoxic activity, MTT test, A375, 72 h

IC50 (A375 melanoma cells [1]; A375, 48 h) [µM] | IC50 (A375 melanoma cells [1]; [20]) [µM] | IC50 (A375 melanoma cells [1]; [21]) [µM] | IC50 (A375 melanoma cells [1]; [22]) [µM] | IC50 (C32 melanoma cells [2]; C32, 48 h) [µM] | IC50 (C32 melanoma cells [2]; Homo sapiens, C32, C32, 24 h) [µM] | IC50 (C32 melanoma cells [2]; Homo sapiens, C32, C32, 48 h) [µM] | IC50 (C32 melanoma cells [2]; Homo sapiens, C32, C32, 72 h) [µM] | IC50 at 24 h [8] [µM] | IC50 at 48 h [8] [µM] | IC50 at 72 h [8] [µM] | SMILES | IC50 (C32 melanoma cells [5]; [23]) [µM] | IC50 (C32 melanoma cells [5]; [24]) [µM] | IC50 (C32 melanoma cells [5]; [25]) [µM] | IC50 (A375 melanoma cells [7]; [26]) [µM] | IC50 (A375 melanoma cells [7]; [27]) [µM] | IC50 (A375 melanoma cells [7]; [28]) [µM] | IC50 (A375 melanoma cells [11]; A-375, 24 h) [µM] | IC50 (A375 melanoma cells [11]; A-375, 48 h) [µM] | IC50 (A375 melanoma cells [11]; A-375, 72 h) [µM] | also measured
29.7 ± 1.6 | 62.1 ± 3.9 | 29.7 ± 0.62 | 20.5 ± 2.2 | 18.4 ± 1.4 | 38.1 ± 1.5 | 18.4 ± 0.42 | 12.8 ± 0.9 | > 200 | 100 to 200 | 72.9 ± 5.6 | O=c1cc(-c2ccccc2)oc2c(O)c(O)ccc12 [Compound 16, 7,8-dihydroxyflavone] | > 200 | 19.9 ± 1.2 | 16.5 ± 2.1 | 100 to 200 | 33.2 ± 3.2 | 20.5 ± 2.2 | 100 to 200 | 36 ± 3.5 | 27.4 ± 2.4 | IC50 [3]: 200 to 250 µM; level of early apoptotic cells (A375 melanoma cells [4]; A375, 25 µM): 49.1 ± 3.9%; level of late apoptotic cells (A375 melanoma cells [4]; A375, 25 µM): 6.4 ± 1.5%; level of the cleaved caspase-7 [6]: slightly increased; IC50 at 24 h [9]: > 200 µM; IC50 at 48 h [9]: 100 to 200 µM; IC50 at 72 h [9]: 93.3 ± 8 µM; IC50 [10]: 200 to 250 µM; IC50 ([12]; 24 h): 81.6 ± 5.8 µM; IC50 ([12]; 48 h): 64.6 ± 2.8 µM; IC50 ([12]; 72 h): 37 ± 2.5 µM; cleavage of caspase-9 [13]: weak cleavage; expression of cleaved caspase-8 [13]: increased; phosphorylation of the RSK protein [13]: impaired; IC50 (C32 melanoma cells [14]; C32, 24 h): 100 to 200 µM; IC50 (C32 melanoma cells [14]; C32, 48 h): 39.2 ± 2.6 µM; IC50 (C32 melanoma cells [14]; C32, 72 h): 26.2 ± 2.8 µM
28.6 ± 1.8 | 87.7 ± 4.2 | 28.6 ± 0.84 | 23.4 ± 1.6 | 27 ± 1.4 | > 200 | 27.1 ± 0.49 | 22.5 ± 1.2 | > 200 | 87.8 ± 5.8 | 58 ± 3.2 | O=c1cc(-c2ccc(O)cc2)oc2cc(O)cc(O)c12 [Compound 1, apigenin] | 100 to 200 | 25.7 ± 1.6 | 22.4 ± 1.5 | > 200 | 31.9 ± 3 | 20.7 ± 1.5 | 64.5 ± 4.3 | 24.7 ± 2.4 | 21.2 ± 1.4 | cleaved PARP and caspase-9 [15]: generated cleaved PARP and caspase-9; level of cleaved caspase-3 [16]: slightly increased; level of early apoptotic cells (A375 melanoma cells [4]; A375, 50 µM): 34.2 ± 2.8%; level of late apoptotic cells (A375 melanoma cells [4]; A375, 50 µM): 7.1 ± 1.6%; caspase-3 expression [6]: notably extended; A375 cell motility and invasion (A375 cells [17]): significantly inhibited; IC50 at 24 h (in vitro): > 200 µM; IC50 at 48 h (in vitro): > 200 µM; IC50 at 72 h (in vitro): 100 to 200 µM; percentage of early apoptotic cells (C32 melanoma cells [18]): 13.3 ± 2.4%; percentage of late apoptotic cells (C32 melanoma cells [18]): 29.4 ± 3.3%; IC50 ([12]; 24 h): 188 ± 8.1 µM; IC50 ([12]; 48 h): 189 ± 9.5 µM; IC50 ([12]; 72 h): > 200 µM; A375 cell viability, MTT assay (A375 cells [19]): decreased A375 cell viability; cleavage of initiator caspases, caspase-9 and caspase-8 [13]: cleavage of both initiator caspases; levels of the caspases-3 and -7 zymogens [13]: decreased levels; IC50 (C32 melanoma cells [14]; C32, 24 h): > 200 µM; IC50 (C32 melanoma cells [14]; C32, 48 h): 63.1 ± 4.7 µM; IC50 (C32 melanoma cells [14]; C32, 72 h): 31.8 ± 2.5 µM
